Test results reported in PMC8220105 (Computational and Structural Biotechnology Journal, 2021).

Biological target: p38α MAPK (Homo sapiens, UniProt Q16539)
Experiment: microscale thermophoresis
Format: binding

Sequence of p38α MAPK (Q16539 2-360): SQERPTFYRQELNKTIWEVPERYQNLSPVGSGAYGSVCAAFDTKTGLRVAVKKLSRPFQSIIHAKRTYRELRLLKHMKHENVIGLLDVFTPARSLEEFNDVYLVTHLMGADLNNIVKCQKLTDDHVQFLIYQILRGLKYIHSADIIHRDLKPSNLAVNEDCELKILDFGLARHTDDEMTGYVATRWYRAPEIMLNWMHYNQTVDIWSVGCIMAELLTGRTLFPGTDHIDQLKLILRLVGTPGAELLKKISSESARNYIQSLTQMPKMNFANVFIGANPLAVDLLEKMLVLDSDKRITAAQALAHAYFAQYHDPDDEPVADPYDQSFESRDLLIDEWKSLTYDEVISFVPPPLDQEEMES

Kd: 31 nM
Compound: COC(=O)[C@@]12OC[C@]34[C@H]([C@@H](O)[C@@H]1O)[C@@]1(C)CC(=O)C(O)=C(C)[C@@H]1C[C@H]3OC(=O)[C@H](OC(=O)CC(C)C)[C@@H]24 [bruceine A]
